SMILES strings stand for the structures.

This passage reports Ki results from patent US7772252B2, “Heterocyclic substituted carbonyl derivatives and their use as dopamine D3 receptor ligands” (Aventis Pharmaceuticals Inc., priority 2001, dated 2010).

T1 sequence (P35462 whole entry): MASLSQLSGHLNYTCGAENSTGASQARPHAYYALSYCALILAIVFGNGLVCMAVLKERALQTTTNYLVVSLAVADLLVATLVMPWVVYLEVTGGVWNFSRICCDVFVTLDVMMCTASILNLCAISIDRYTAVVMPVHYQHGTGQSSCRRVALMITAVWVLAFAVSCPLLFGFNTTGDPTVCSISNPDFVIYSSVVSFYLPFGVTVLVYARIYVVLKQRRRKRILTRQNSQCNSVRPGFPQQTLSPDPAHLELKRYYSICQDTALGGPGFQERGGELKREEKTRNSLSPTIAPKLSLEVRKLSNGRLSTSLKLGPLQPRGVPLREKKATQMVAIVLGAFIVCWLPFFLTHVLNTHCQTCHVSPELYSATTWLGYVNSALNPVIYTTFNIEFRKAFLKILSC

One assay has as its target T1, cloned human dopamine D3 receptors (Homo sapiens, UniProt P35462).
T1 construct: expressed in transfected cells; membrane homogenate
As to the kind of experiment: [N-Methyl-3H]Spiroperidol binding to cloned human dopamine D3 receptors. The following applies: read-out: D3 Ki. In outline: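 Stably transfected CHO cells expressing cloned human D3 receptor were used as membranes homogenized in 10% DMSO. Ligand was [N-methyl-3H]spiroperidol displacement.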
For `CC(C)(C)OC(=O)N1CCC(CNC(=O)[C@@H]2C[C@H]2CN2CCC(c3noc4ccsc34)CC2)CC1` [compound 833375], the Ki is 24.2 nM.

`COc1c(F)ccc2c(C3CCN(C[C@@H]4C[C@H]4C(=O)NCCCn4ccnc4)CC3)noc12` [compound 831309]: the Ki was 40.6 nM.

For `O=C(NC1CCN(Cc2cccnc2)CC1)[C@@H]1C[C@H]1CN1CCC(c2noc3ccsc23)CC1` [compound 833485], the Ki is 2.99 nM.

`COc1ccc2[nH]nc(N3CCN(CC4CC4C(=O)NC4CCC(C)CC4)CC3)c2c1` (racemic) [compound 830439]: the Ki was 17.6 nM.

As to `O=C(NCCCn1ccnc1)[C@@H]1C[C@H]1CN1CCC(c2noc3ccsc23)CC1` [compound 829596], the Ki came out at 4.41 nM.

With `O=C(NCCCN1CCCCC1)[C@@H]1C[C@H]1CN1CCC(c2csc3cc(C(F)(F)F)ccc23)CC1` [compound 834015], the Ki is 1.24 nM.

`O=C(N[C@H]1CC[C@H](O)CC1)[C@@H]1C[C@H]1CN1CCC(c2cc3ccccc3s2)CC1` [compound 831950]: the Ki was determined as 5.48 nM.

`COc1cccc2c(C3CCN(C[C@@H]4C[C@H]4C(=O)NCCCc4cccnc4)CC3)noc12` [compound 832104]: the Ki came out at 620 nM.

In the case of `Cn1nc(C2CCN(C[C@@H]3C[C@H]3C(=O)NCCCn3ccnc3)CC2)c2sccc21` [A002436291, 2R-[4-(1-Methyl-1H-thieno[3,2-c]pyrazol-3-yl)-piperidin-1-ylmethyl]-1R-cycloproanecarboxylic acid (3-imidazol-1-yl-propyl)-amide], the Ki turned out to be 0.629 nM.

On to `O=C(NC1CCN(Cc2ccccc2Cl)CC1)C1CC1CN1CCC(c2noc3ccsc23)CC1` (racemic) [compound 831996], for which the Ki came to 7.97 nM.

As for `COc1ccc2c(c1)c(N1CCN(C[C@@H]3C[C@H]3C(=O)NCC3CCNCC3)CC1)nn2C` [compound 833136], the Ki is 14.3 nM.

On to `COc1ccc(CN2CCC(NC(=O)C3CC3CN3CCC(c4noc5ccsc45)CC3)CC2)cc1` (racemic) [compound 831795], for which the Ki came to 1.82 nM.

Consider `O=C([C@@H]1C[C@H]1CN1CCC(c2noc3ccsc23)CC1)N1CCC(n2ccnc2)CC1` [compound 833164], for which the Ki turned out to be 52.5 nM.

As for `O=C(NCCCn1ccnc1)[C@@H]1C[C@H]1CN1CCC(c2nn(CC(F)(F)F)c3ccsc23)CC1` [A002287767, 2R-{4-[1-(2,2,20Trifluoro-ethyl)-1H-thieno[3,2-c]pyrazol-3-yl)-piperidin-1-ylmethyl]-1R-cycloproanecarboxylic acid (3-imidazol-1-yl-propyl)-amide], the Ki amounted to 3.3 nM.

With `Cn1nc(C2CCN(C[C@@H]3C[C@H]3C(=O)N3CCC[C@@H](Cn4ccnc4)C3)CC2)c2cccc(C(F)(F)F)c21` [A002439260], the Ki was found to be 0.303 nM.

On to `O=C([C@@H]1C[C@H]1CN1CCC(c2noc3ccsc23)CC1)N1CCC(c2noc3ccsc23)CC1` [compound 831345], for which the Ki was determined as 34.4 nM.

As to `CC[C@H]1CC[C@H](NC(=O)[C@@H]2C[C@H]2CN2CCN(c3nn(C)c4ccc(OC)cc34)CC2)CC1` [832747ES], the Ki amounted to 1.05 nM.

With `C[C@H]1CC[C@H](NC(=O)[C@@H]2C[C@H]2CN2CCN(c3nn(-c4ccc(C(F)(F)F)cc4)c4ccsc34)CC2)CC1` [compound 832881], the Ki came out at 37.9 nM.

With `Cc1ccc2c(c1)c(C1CCN(C[C@@H]3C[C@H]3C(=O)NCCCn3ccnc3)CC1)nn2C` [compound 834129], the Ki worked out at 6.75 nM.

In the case of `O=C(NCCc1ccccc1)[C@@H]1C[C@H]1CN1CCC(c2noc3ccsc23)CC1` [compound 830829], the Ki came to 5.3 nM.

Regarding `O=C(C1CC1CN1CCC(c2noc3ccsc23)CC1)N1CC=CC1` (racemic) [compound 829594], the Ki came out at 364 nM.

Regarding `O=C(NCCCN1CCCCC1)[C@@H]1C[C@H]1CN1CCN(c2csc3cc(C(F)(F)F)ccc23)CC1` [compound 831491], the Ki came out at 0.187 nM.

`O=C(NC1CCN(C(=O)c2cccc(Cl)c2)CC1)C1CC1CN1CCC(c2noc3ccsc23)CC1` (racemic) [compound 832488]: the Ki came out at 39.5 nM.

For `O=C(NCCCn1ccnc1)[C@@H]1C[C@H]1CN1CCN(c2nn(-c3ccccc3)c3ccsc23)CC1` [compound 832592], the Ki was determined as 7.29 nM.

`O=C(NCCCn1ccnc1)[C@@H]1C[C@H]1CN1CCC(c2noc3c(C(F)(F)F)cccc23)CC1` [compound 832274]: the Ki is 52.4 nM.

`CC(C)(C)c1ccc(CCNC(=O)C2CC2CN2CCC(c3noc4ccsc34)CC2)cc1` (racemic) [compound 832046]: the Ki was 35.5 nM.

For `COc1ccc(C2=CCN(C(=O)C3CC3CN3CCC(c4noc5ccsc45)CC3)CC2)cc1` (racemic) [compound 831599], the Ki is 49.8 nM.

For the compound `CC1CCN(CCCNC(=O)[C@@H]2C[C@H]2CN2CCN(c3nn(C)c4ccsc34)CC2)CC1` [A002350369], the Ki worked out at 100 nM.

On to `O=C([C@@H]1C[C@H]1CN1CCN(c2csc3cc(C(F)(F)F)ccc23)CC1)N1CCC[C@H](CO)C1` [A002438636], for which the Ki turned out to be 13 nM.

On to `O=C(NCCCn1ccnc1)[C@@H]1C[C@H]1CN1CCN(c2n[nH]c3ccsc23)CC1` [compound 831315], for which the Ki came out at 29.3 nM.

Consider `O=C(NCCCN1CCOCC1)[C@@H]1C[C@H]1CN1CCN(c2csc3cc(C(F)(F)F)ccc23)CC1` [compound 831492], for which the Ki came out at 0.432 nM.

For the compound `O=C([C@@H]1C[C@H]1CN1CCN(c2csc3ncccc23)CC1)N1CCC[C@@H](Cn2ccnc2)C1` [A002437802], the Ki is 0.251 nM.

On to `COc1ccc2c(c1)c(N1CCN(C[C@@H]3C[C@H]3C(=O)NCC3CCN(C(C)=O)CC3)CC1)nn2C` [compound 833197], for which the Ki stood at 45.4 nM.

As to `Cn1nc(C2CCN(C[C@@H]3C[C@H]3C(=O)NCC3CCNCC3)CC2)c2sccc21` [A002440434A], the Ki is 462 nM.

On to `COc1c(F)ccc2c(C3CCN(CCC4(C(=O)NCCCn5ccnc5)CC4)CC3)noc12` [compound 833378], for which the Ki was 23.7 nM.

For `CCC(C)OC(=O)n1cc(C2CCN(C[C@@H]3C[C@H]3C(=O)N3CCC[C@@H](Cn4ccnc4)C3)CC2)c2ccc(C(F)(F)F)cc21` (stereo partly drawn) [A002437355], the Ki stood at 1.87 nM.

`O=C([C@@H]1C[C@H]1CN1CCC(c2noc3ccsc23)CC1)N1CCN(c2ccccn2)CC1` [compound 830252]: the Ki was found to be 110 nM.

Take `O=C(C1COc2ccccc2O1)N1CCN(C(=O)C2CC2CN2CCC(c3noc4ccsc34)CC2)CC1` (racemic) [compound 832055]: the Ki came to 112 nM.

For the compound `O=C(NCCCCc1cccnc1)[C@@H]1C[C@H]1CN1CCC(c2noc3ccsc23)CC1` [compound 832530], the Ki was 16 nM.

`O=C(NCCSc1ccc(Cl)cc1)C1CC1CN1CCC(c2noc3ccsc23)CC1` (racemic) [compound 832397]: the Ki was found to be 51.9 nM.

Regarding `C[C@H]1CC[C@H](NC(=O)[C@@H]2C[C@H]2CN2CCC(c3n[nH]c4cc(Br)ccc34)CC2)CC1` [compound 833694], the Ki turned out to be 46.9 nM.

Consider `O=C(NC1CCN(Cc2cccc(C(F)(F)F)c2)CC1)C1CC1CN1CCC(c2noc3ccsc23)CC1` (racemic) [compound 831831], for which the Ki stood at 6.31 nM.

On to `O=C(NCCCn1ccnc1-c1ccccc1)[C@@H]1C[C@H]1CN1CCC(c2noc3ccsc23)CC1` [compound 831378], for which the Ki stood at 35.6 nM.

Regarding `O=C(NC1CCN(Cc2cccc(Cl)c2)CC1)[C@@H]1C[C@H]1CN1CCN(c2csc3cc(C(F)(F)F)ccc23)CC1` [compound 832740], the Ki came to 30.2 nM.

Regarding `CCC1CCC(NC(=O)C2CC2CN2CCN(Cc3ccccc3)CC2)CC1` (racemic) [compound 827241], the Ki came to 89.5 nM.

Turning to `O=C(NCCCN1CCCC1)[C@@H]1C[C@H]1CN1CCC(c2noc3ccsc23)CC1` [compound 831272], the Ki amounted to 6.22 nM.

Regarding `O=C(NCCCN1CCCCC1)[C@@H]1C[C@H]1CN1CCC(c2csc3c(C(F)(F)F)cccc23)CC1` [compound 833686], the Ki was 7.22 nM.

As for `O=C(C1CC1CN1CCC(c2noc3ccsc23)CC1)N1CCN(CCc2ccncc2)CC1` (racemic) [compound 832000], the Ki is 79.6 nM.

For the compound `CC1CCC(NC(=O)C2CC2CN2C3CCC2CC(c2n[nH]c4ccccc24)C3)CC1` (stereo not drawn) [compound 830115], the Ki stood at 45.3 nM.

Consider `Cc1ccc2c(c1)c(C1CCN(C[C@@H]3C[C@H]3C(=O)NC3C4CCC3CN(C)C4)CC1)nn2C` (stereo partly drawn) [A002328940], for which the Ki came out at 26.8 nM.

Regarding `O=C(NCCCN1CCCCC1)[C@@H]1C[C@H]1CN1CCC(c2nsc3cc(Br)ccc23)CC1` [A002329100], the Ki was determined as 6.32 nM.

Turning to `O=C(NCCCn1ccnc1)[C@@H]1C[C@H]1CN1CCN(c2nn(-c3ccc(OC(F)(F)F)cc3)c3ccsc23)CC1` [compound 833333], the Ki turned out to be 8.11 nM.

For `O=C(NC1CCN(C(=O)c2ccc(Cl)nc2)CC1)C1CC1CN1CCC(c2noc3ccsc23)CC1` (racemic) [compound 832505], the Ki amounted to 40.6 nM.

Regarding `COc1cccc2c(C3CCN(C[C@@H]4C[C@H]4C(=O)N4CCC[C@@H](Cn5ccnc5)C4)CC3)noc12` [A002437359, (3S-Imidazol-1-ylmethyl-piperidin-1-yl)-{2R-[4-(7-methoxy-benzo[d]isoxazol-3-yl)-piperidin-1-ylmethyl]-1R-cyclopropyl}-methanone], the Ki came to 0.541 nM.

For the compound `COc1c(F)ccc2c(C3CCN(C[C@@H]4C[C@H]4C(=O)N[C@H]4CC[C@H](O)CC4)CC3)noc12` [compound 831952], the Ki is 42.8 nM.

On to `O=C([C@@H]1C[C@H]1CN1CCN(c2csc3cc(C(F)(F)F)ccc23)CC1)N1CCC(Cn2ccnc2)CC1` [compound 831958], for which the Ki came to 13 nM.

With `O=C(NCCCN1CCCCC1)[C@@H]1C[C@H]1CN1CCC(c2noc3ccc(C(F)(F)F)cc23)CC1` [A002200838], the Ki worked out at 0.807 nM.

In the case of `CN1C2CCC1CC(NC(=O)[C@@H]1C[C@H]1CN1CCN(c3csc4cc(C(F)(F)F)ccc34)CC1)C2` (stereo partly drawn) [A002439099], the Ki stood at 4.91 nM.

Consider `O=C(NCCN1CCCC1)[C@@H]1C[C@H]1CN1CCN(c2csc3cc(C(F)(F)F)ccc23)CC1` [compound 831886], for which the Ki was found to be 16.8 nM.

The assay is the same for the next values; noted with them: read-out: d3Ki.
Turning to `CCN(C(=O)CCCN1CCN(c2csc3cc(C(F)(F)F)ccc23)CC1)C1CCCCC1` [compound 826809], the Ki is 71 nM.
